Measured values from PubChem BioAssay (NCI).
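Dose response: 5 concentrations. Exposure: 48 h. Format: 96-well plates. Endpoint: linear interpolation; highest concentration if not reached. Definition used: TGI = concentration required for complete inhibition of growth.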

Tests used:
Experiment in all cases: growth of human tumour cells (NCI), 48 h
786-0 renal = system: 786-0 renal
A549 NSCLC = system: A549 NSCLC
BT-549 breast = system: BT-549 breast
CAKI-1 renal = system: CAKI-1 renal
CCRF-CEM leukemia = system: CCRF-CEM leukemia
COLO 205 colon = system: COLO 205 colon
HCC-2998 colon = system: HCC-2998 colon
HCT-116 colon = system: HCT-116 colon
HCT-15 colon = system: HCT-15 colon
HOP-62 NSCLC = system: HOP-62 NSCLC
HOP-92 NSCLC = system: HOP-92 NSCLC
HS 578T breast = system: HS 578T breast
HT29 colon = system: HT29 colon
IGROV1 ovarian = system: IGROV1 ovarian
K-562 leukemia = system: K-562 leukemia
KM12 colon = system: KM12 colon
LOX IMVI melanoma = system: LOX IMVI melanoma
M14 melanoma = system: M14 melanoma
MALME-3M melanoma = system: MALME-3M melanoma
MCF7 breast = system: MCF7 breast
MDA-MB-231 breast = system: MDA-MB-231 breast
MDA-MB-435 = system: MDA-MB-435
MDA-N = system: MDA-N
MOLT-4 leukemia = system: MOLT-4 leukemia
NCI-H226 lung = system: NCI-H226 lung
NCI-H23 lung = system: NCI-H23 lung
NCI-H460 lung = system: NCI-H460 lung
NCI-H522 lung = system: NCI-H522 lung
NCI/ADR-RES ovarian = system: NCI/ADR-RES ovarian
OVCAR-3 ovarian = system: OVCAR-3 ovarian
OVCAR-4 ovarian = system: OVCAR-4 ovarian
OVCAR-5 ovarian = system: OVCAR-5 ovarian
OVCAR-8 ovarian = system: OVCAR-8 ovarian
PC-3 prostate = system: PC-3 prostate
SF-295 CNS = system: SF-295 CNS
SF-539 CNS = system: SF-539 CNS
SK-MEL-28 melanoma = system: SK-MEL-28 melanoma
SK-MEL-5 melanoma = system: SK-MEL-5 melanoma
SK-OV-3 ovarian = system: SK-OV-3 ovarian
SN12C renal = system: SN12C renal
SNB-19 CNS = system: SNB-19 CNS
SNB-75 CNS = system: SNB-75 CNS
SR leukemia = system: SR leukemia
SW-620 colon = system: SW-620 colon
T-47D breast = system: T-47D breast
TK-10 renal = system: TK-10 renal
U251 CNS = system: U251 CNS
UACC-257 melanoma = system: UACC-257 melanoma
UACC-62 melanoma = system: UACC-62 melanoma
UO-31 renal = system: UO-31 renal
ACHN renal = system: ACHN renal
DU-145 prostate = system: DU-145 prostate
EKVX NSCLC = system: EKVX NSCLC
HL-60(TB) leukemia = system: HL-60(TB) leukemia
RPMI-8226 leukemia = system: RPMI-8226 leukemia
RXF 393 renal = system: RXF 393 renal
SF-268 CNS = system: SF-268 CNS
SK-MEL-2 melanoma = system: SK-MEL-2 melanoma

Measured: TGI

O=C(N/C(=C/c1ccc(Cl)cc1)c1nc2ccccc2c(=O)n1Nc1ccc([N+](=O)[O-])cc1[N+](=O)[O-])c1ccccc1
not listed: ACHN renal | DU-145 prostate | EKVX NSCLC | HL-60(TB) leukemia | RPMI-8226 leukemia | RXF 393 renal | SF-268 CNS | SK-MEL-2 melanoma
> 100 µM: all other assays above

CC(C)(C)OC(=O)N/N=C(/N)c1ccccc1
not listed: HOP-92 NSCLC | HS 578T breast | SR leukemia | SW-620 colon
> 100 µM: all other assays above
